This note sets out measurements from ChEMBL document CHEMBL4043197, “Quinazoline-1-deoxynojirimycin hybrids as high active dual inhibitors of EGFR and α-glucosidase” (Bioorg Med Chem Lett, 2017).

As usually defined, the IC50 is the concentration needed to halve the response being measured. For orientation: inhibition means the share of the control response that was lost under treatment.

The nature of test [1]: Inhibition of recombinant alpha-glucosidase (unknown origin) using PNP-G as substrate preincubated for 5 mins followed by substrate addition measured after 30 mins by spectrophotometric analysis. On the set-up: species or system Homo sapiens.
Test [2] deals with T1, Epidermal growth factor receptor (Homo sapiens, UniProt P00533). The settings on record: at 50 nM.
T1 sequence (P00533 whole entry): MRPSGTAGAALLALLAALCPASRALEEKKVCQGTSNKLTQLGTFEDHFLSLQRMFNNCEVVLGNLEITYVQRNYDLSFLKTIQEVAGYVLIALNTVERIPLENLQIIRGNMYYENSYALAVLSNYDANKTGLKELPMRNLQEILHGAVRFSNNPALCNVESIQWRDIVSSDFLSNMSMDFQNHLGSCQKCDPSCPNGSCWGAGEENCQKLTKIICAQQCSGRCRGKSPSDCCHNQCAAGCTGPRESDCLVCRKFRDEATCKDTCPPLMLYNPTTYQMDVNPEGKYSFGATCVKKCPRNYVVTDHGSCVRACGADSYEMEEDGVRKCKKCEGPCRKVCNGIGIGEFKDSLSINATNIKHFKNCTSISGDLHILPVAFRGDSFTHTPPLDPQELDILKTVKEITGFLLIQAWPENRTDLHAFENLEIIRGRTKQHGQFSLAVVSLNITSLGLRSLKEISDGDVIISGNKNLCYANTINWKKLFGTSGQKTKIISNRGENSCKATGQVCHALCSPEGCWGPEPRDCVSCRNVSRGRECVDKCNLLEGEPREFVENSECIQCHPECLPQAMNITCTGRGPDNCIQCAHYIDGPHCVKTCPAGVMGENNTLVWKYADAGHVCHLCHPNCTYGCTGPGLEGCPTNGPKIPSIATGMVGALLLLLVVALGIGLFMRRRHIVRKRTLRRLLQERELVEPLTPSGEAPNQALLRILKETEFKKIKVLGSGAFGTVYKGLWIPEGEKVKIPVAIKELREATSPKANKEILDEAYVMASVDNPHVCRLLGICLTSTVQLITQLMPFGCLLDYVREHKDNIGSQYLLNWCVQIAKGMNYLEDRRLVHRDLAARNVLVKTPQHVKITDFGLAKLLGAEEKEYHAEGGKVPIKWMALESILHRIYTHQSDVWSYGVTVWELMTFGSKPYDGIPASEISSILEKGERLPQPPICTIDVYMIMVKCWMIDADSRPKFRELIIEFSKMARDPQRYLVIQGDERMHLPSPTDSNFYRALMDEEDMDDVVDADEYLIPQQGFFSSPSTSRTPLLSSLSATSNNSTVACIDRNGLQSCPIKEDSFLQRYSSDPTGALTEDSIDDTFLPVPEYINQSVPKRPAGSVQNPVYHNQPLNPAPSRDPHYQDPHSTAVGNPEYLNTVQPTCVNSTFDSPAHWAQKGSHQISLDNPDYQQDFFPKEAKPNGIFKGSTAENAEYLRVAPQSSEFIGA
Description: Inhibition of wild type recombinant EGFR (unknown origin) at 50 nM by ELISA relative to control
The target of test [3] is T1, Epidermal growth factor receptor. Briefly: Inhibition of wild type recombinant EGFR (unknown origin) by ELISA. In general terms: In an ELISA, binding on a coated surface is turned into a signal by an enzyme label.

Structures can show the parent of a compound that is named as a salt.

With `OC[C@H]1NC[C@H](O)[C@@H](O)[C@@H]1O` [DUVOGLUSTAT HYDROCHLORIDE], the half-maximal inhibitory concentration (IC50) in test [1] is 70 nM.

In test [2], `COc1cc2ncnc(Nc3ccc(OCc4cccc(F)c4)c(Cl)c3)c2cc1OCCCN1C[C@H](O)[C@@H](O)[C@H](O)[C@H]1CO` registered an inhibition of 74.9%. In addition, in test [1], the IC50 worked out at 21200 nM.

`OC[C@@H]1[C@@H](O)[C@H](O)[C@@H](O)CN1Cc1ccc(-c2ccc3ncnc(Nc4ccc(F)c(Cl)c4)c3c2)o1` displayed an inhibition in test [2] of 78%.

With `C#Cc1cccc(Nc2ncnc3cc(OC)c(OCCCN4C[C@H](O)[C@@H](O)[C@H](O)[C@H]4CO)cc23)c1`, the inhibition in test [2] turned out to be 79.6%. Also, in test [1], the IC50 was 6190 nM.

Consider `COc1cc2c(Nc3ccc(F)c(Cl)c3)ncnc2cc1OCCCN1C[C@H](O)[C@@H](O)[C@H](O)[C@H]1CO`, for which the IC50 in test [3] was found to be 1.79 nM; in test [1], 390 nM. The molecule further displayed an inhibition in test [2] of 85.3%.

Consider `C#Cc1cccc(Nc2ncnc3cc(OCCCN4C[C@H](O)[C@@H](O)[C@H](O)[C@H]4CO)c(OC)cc23)c1`, for which the IC50 was 4.87 nM in test [3] and 90 nM in test [1]. This molecule displayed an inhibition in test [2] of 83.2%.

`OC[C@@H]1[C@@H](O)[C@H](O)[C@@H](O)CN1Cc1ccc(-c2ccc3ncnc(Nc4ccc(OCc5cccc(F)c5)c(Cl)c4)c3c2)o1`: the inhibition in test [2] is 50.6%.

For the molecule `OCCN1C[C@H](O)[C@@H](O)[C@H](O)[C@H]1CO` [MIGLITOL], the IC50 in test [1] was found to be 2430 nM.

Turning to `COc1cc2c(Nc3ccc(F)c(Cl)c3)ncnc2cc1OCCN1C[C@H](O)[C@@H](O)[C@H](O)[C@H]1CO`, the inhibition in test [2] was 53.7%. In test [1], the IC50 is 250 nM.

`C#Cc1cccc(Nc2ncnc3cc(OCCN4C[C@H](O)[C@@H](O)[C@H](O)[C@H]4CO)c(OC)cc23)c1` came in with an inhibition in test [2] of 53.5%. In addition, the IC50 in test [1] amounted to 6250 nM.

Consider `COc1cc2ncnc(Nc3ccc(F)c(Cl)c3)c2cc1OCCCN1C[C@H](O)[C@@H](O)[C@H](O)[C@H]1CO`, for which the values for the IC50 in test [3] and in test [1] were 10.7 nM and 4340 nM, respectively. Besides, in test [2], the inhibition amounted to 83.5%.

In turn, `COc1cc2ncnc(Nc3ccc(OCc4cccc(F)c4)c(Cl)c3)c2cc1OCCN1C[C@H](O)[C@@H](O)[C@H](O)[C@H]1CO` returned an inhibition in test [2] of 66.5%. Moreover, the 50% inhibitory concentration (IC50) in test [1] turned out to be 64100 nM.

In test [2], `COc1cc2ncnc(Nc3ccc(F)c(Cl)c3)c2cc1OCCN1C[C@H](O)[C@@H](O)[C@H](O)[C@H]1CO` yielded an inhibition of 65.2%. For the same molecule, the IC50 in test [1] was found to be 8400 nM.

As to `COc1cc2c(Nc3ccc(OCc4cccc(F)c4)c(Cl)c3)ncnc2cc1OCCCN1C[C@H](O)[C@@H](O)[C@H](O)[C@H]1CO`, the IC50 in test [3] is 4.53 nM; in test [1] it was 140 nM. In test [2], the inhibition turned out to be 78.2%.

For `C#Cc1cccc(Nc2ncnc3ccc(-c4ccc(CN5C[C@H](O)[C@@H](O)[C@H](O)[C@H]5CO)o4)cc23)c1`, in test [2], the inhibition turned out to be 27.1%.

`C#Cc1cccc(Nc2ncnc3cc(OC)c(OCCN4C[C@H](O)[C@@H](O)[C@H](O)[C@H]4CO)cc23)c1` showed an inhibition in test [2] of 56.4%. Also, in test [1], the IC50 is 7180 nM.
